This note sets out measurements from patent publication US20080021038A1, “Novel Piperidine/8-Azabicyclo [3.2.1.] Octan Derivatives As Modulators Of Chemokine Receptor Ccr5” (priority 2004, published 2008).

Each structure is given as a SMILES string.

This assay addresses recombinant human CCR5 receptor (Homo sapiens, UniProt P51681). The experiment in a line: MIP-1α radioligand binding assay (scintillation proximity). As to conditions: displacement of 0.1 nM iodinated MIP-1α; membranes from Chinese hamster ovary cells expressing recombinant human CCR5; average if tested more than once. The method, then:
The ability of compounds to inhibit the binding of MIP-1α was assessed by an in vitro radioligand binding assay. Membranes were prepared from Chinese hamster ovary cells which expressed the recombinant human CCR5 receptor. These membranes were incubated with 0.1 nM iodinated MIP-1α, scintillation proximity beads and various concentrations of the compounds of the invention in 96-well plates. The amount of iodinated MIP-1α bound to the receptor was determined by scintillation counting. Competition curves were obtained for compounds and the concentration of compound which displaced 50% of bound iodinated MIP-1α was calculated (IC50).
In Table X the results are presented as Pic50 values. A Pic50 value is the negative log (to base 10) of the IC50 result, so an IC50 of 1 μM (that is 1×10^−6M) gives a Pic50 of 6. If a compound was tested more than once then the data below is an average of the probative tests results.

Chain of recombinant human CCR5 receptor (P51681 whole entry): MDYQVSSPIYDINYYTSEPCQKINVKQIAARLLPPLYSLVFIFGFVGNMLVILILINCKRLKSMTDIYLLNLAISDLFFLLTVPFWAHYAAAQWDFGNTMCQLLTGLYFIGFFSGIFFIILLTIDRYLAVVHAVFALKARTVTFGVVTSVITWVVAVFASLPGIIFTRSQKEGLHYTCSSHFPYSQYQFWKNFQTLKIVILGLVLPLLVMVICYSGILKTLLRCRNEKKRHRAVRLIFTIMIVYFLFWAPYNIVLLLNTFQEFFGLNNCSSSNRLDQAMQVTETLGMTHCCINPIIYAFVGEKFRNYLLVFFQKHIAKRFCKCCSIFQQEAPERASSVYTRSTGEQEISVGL

As for `COc1ccc(S(=O)(=O)CCC2(C)CCN(CC[C@@H](c3cc(F)cc(F)c3)N3CCN(S(C)(=O)=O)CC3)CC2)cc1` [Table II Compound 20, 1-[(1S)-1-(3,5-difluorophenyl)-3-(4-{2-[(4-methoxyphenyl)sulfonyl]ethyl}-4-methylpiperidin-1-yl)propyl]-4-(methylsulfonyl)piperazine], the IC50 is 5.01 nM.

Take `CC1(CCS(=O)(=O)C2CCN(S(C)(=O)=O)CC2)CCN(CC[C@@H](c2cc(F)cc(F)c2)C2CCN(S(C)(=O)=O)CC2)CC1` [Table VIII Compound 2, 1-{(3R)-3-(3,5-difluorophenyl)-3-[1-(methylsulfonyl)piperidin-4-yl]propyl}-4-methyl-4-(2-{[1-(methylsulfonyl)piperidin-4-yl]sulfonyl}ethyl)piperidine]: the IC50 was 2 nM.

`CC1(CCS(=O)(=O)c2ccc(S(C)(=O)=O)cc2)CCN(CC[C@@H](c2ccccc2)N2CCN(S(C)(=O)=O)CC2)CC1` [Table II Compound 18, 1-{(1S)-3-[4-methyl-4-(2-{[4-(methylsulfonyl)phenyl]sulfonyl}ethyl)piperidin-1-yl]-11-phenylpropyl)-4-(methylsulfonyl)piperazine]: the IC50 is 0.631 nM.

Consider `CC1(CCS(=O)(=O)C2CCN(C(=O)OCc3ccccc3)CC2)CCN(CC[C@@H](c2cc(F)cc(F)c2)C2CCN(S(C)(=O)=O)CC2)CC1` [Table VIII Compound 1, benzyl 4-{[2-(1-{(3R)-3-(3,5-difluorophenyl)-3-[1-(methylsulfonyl)piperidin-4-yl]propyl}-4-methylpiperidin-4-yl)ethyl]sulfonyl}piperidine-1-carboxylate], for which the IC50 is 7.94 nM.

Regarding `CC1(CCS(=O)(=O)c2ccc(S(C)(=O)=O)cc2)CCN(CC[C@H](c2ccc(S(C)(=O)=O)cc2)c2cc(F)cc(F)c2)CC1` [Table I Compound 1, 1-{(3R)-3-(3,5-difluorophenyl)-3-[4-(methylsulfonyl)phenyl]propyl}-4-methyl-4-(2-{[4-(methylsulfonyl)phenyl]sulfonyl}ethyl)piperidine], the IC50 is 0.251 nM.

In the case of `CC1(CCS(=O)(=O)c2ccc(S(C)(=O)=O)cc2)CCN(CC[C@@H](c2cc(F)cc(F)c2)N2CCN(S(C)(=O)=O)CC2)CC1` [Table II Compound 19, 1-{(1S)-1-(3,5-difluorophenyl)-3-[4-methyl-4-(2-{[4-(methylsulfonyl)phenyl]sulfonyl}ethyl)piperidin-1-yl]propyl}-4-(methylsulfonyl)piperazine], the IC50 was 2 nM.
